From patent US8022104B2 (priority 2005, dated 2011)
“And” between values parts separate entries of the source, which are not always exact repeats. Identical values can stand only once. Like-named read-outs stand apart in the source and are kept apart here.

Experiments:
[1] = tested on: Cholinesterase; assay: Cholinesterase inhibition at pre-dose in patients; assay type: in vivo, human; settings: pre-dose administration, at maintenance and at termination analyses
Source text: Cholinesterase inhibition at pre-dose administration both at maintenance and at termination analyses was also evident.

[2] = Bulk and tapped density of ladostigil tartrate crystals; assay type: physicochemical; settings: crystals from the alternative isopropanol process
Source text: This alternative process, which can be performed without the seeding step, is better suited for use in a pilot scale and a production scale than a method that follows PCT Application Publication No. WO98/27055.

[3] = Wet granulation experiments: compatibility with water and ethanol; assay type: physicochemical
Description: The manufacturing process was changed from the dry granulation process to a wet-granulation process as a result of the flow problem with the active ingredient. Water and ethanol are the two most common agents used in wet granulation. Granulation experiments were first performed with water. […] Therefore, granulation experiments based on the CC formulation were performed with isopropanol.

[4] = tested on: 3,4-dihydroxyphenylglycol (DHPG) in plasma; assay: Decrease of DHPG plasma concentration in patients, HPLC with electrochemical detector; assay type: in vivo, human
Description: Decrease of 3,4-dihydroxyphenylglycol (“DHPG”) in plasma is indicative of monoamine oxidase inhibition, especially in the brain. DHPG plasma concentrations were measured in 6 of the aforementioned patients at baseline and at termination analysis, using HPLC equipped with an electrochemical detector.
The decrease in DHPG concentration in the six patients was determined. The average decrease in DHPG concentration was determined to be 57% with a standard deviation of 29.

[5] = Pharmacokinetic analysis in Alzheimer's disease patients; assay type: in vivo, human
Description: Pharmacokinetic analysis was performed on Week 4 (maintenance analysis) and on Week 9 (termination analysis). At maintenance analysis (M), samples were collected pre-dose and at 0.25, 0.5, 1, 2, and 3 hours post-dose. At termination analysis (T), samples were collected pre-dose and at 0.25, 0.5, 1, 2, 3, 4, 6, and […].
The concentration measurements are expressed in nmol/ml and the t1/2 is expressed in terms of hours.

With “R(+)-6-(N-methyl, N-ethyl-carbamoyloxy)-N′-propargyl-1-aminoindan [Ladostigil Tartrate]” the “Cholinesterase inhibition” value [1] was “evident”, the bulk density [2] was 0.22 to 0.29 g/mL and the tapped density [2] was 0.38 to 0.54 g/mL. The Compatibility with ethanol ([3]; wet granulation agent) was “incompatible with ethanol”, the “Stability in the presence of water” value ([3]; wet granulation with water) was “unstable in the presence of water” and the “DHPG (T) (%)” value ([4]; individual patients, termination analysis Week 9 versus baseline) was −63% and −86% and >−79% and −73% and −30% and −13%. The “average decrease in DHPG concentration” value ([4]; six patients, termination analysis, standard deviation of 29) was 57%, the t1/2 ([5]; half life at termination analysis Week 9) was 1.08 h and the “AUC ladostigil (M)” value ([5]; individual patients 1-8, maintenance analysis Week 4, 100 mg twice daily, tablets of Table 9) was 314 ng·h/mL and 589 ng·h/mL and 1005 ng·h/mL and 927 ng·h/mL and 436 ng·h/mL and 551 ng·h/mL and 52 ng·h/mL and 500 ng·h/mL. For the same substance, the “AUC ladostigil (T)” value ([5]; individual patients 1-8, termination analysis Week 9, 100 mg twice daily, tablets of Table 9) was 246 ng·h/mL and 2305 ng·h/mL and 1449 ng·h/mL and 482 ng·h/mL and 398 ng·h/mL and 901 ng·h/mL and 118 ng·h/mL and 350 ng·h/mL, the Cmax ([5]; individual patients 1-8, termination analysis Week 9, 100 mg twice daily, read-out: Cmax ladostigil (T)) was 700 nM and 3800 nM and 3900 nM and 1600 nM and 1000 nM and 2500 nM and 400 nM and 1300 nM and the Cmax ([5]; mean after dosing, maintenance analysis Week 4, read-out: Cmax) was 2020 nM. For the same substance, the Cmax ([5]; mean after dosing, termination analysis Week 9, read-out: Cmax (T)) was 1880 nM, the “Cmin (M)” value ([5]; mean concentration at pre-dose (12 hours after previous dose), maintenance analysis Week 4) was 1.64e-08 M and the “Cmin (T)” value ([5]; mean concentration at pre-dose (12 hours after previous dose), termination analysis Week 9) was 10.9 nM.
